# Experiment: method code SF-AS, from DOI: 10.1016/0045-6535(94)00381-4
row,SMILES,logP
1,Cc1ccc(S(=O)(=O)C2(C(=O)OC(C)C)CCCC2)cc1,2.88
2,COC(=O)CS(=O)(=O)c1ccc(Br)cc1,1.52
3,COC(=O)C1(S(=O)(=O)c2ccccc2)CCCCC1,2.3
4,COC(=O)C1(S(=O)(=O)c2ccc(Br)cc2)CCCCC1,2.94
5,COC(=O)C1(S(=O)(=O)c2ccccc2)CCC1,1.63
6,CC(C)OC(=O)C1(S(=O)(=O)c2ccc(Cl)cc2)CCCCCC1,3.83
7,COC(=O)CS(=O)(=O)c1ccc([N+](=O)[O-])cc1Cl,1.45
8,CC(C)(C)OC(=O)C1(S(=O)(=O)c2ccc(Cl)cc2)CC1,2.68
9,CC(C)OC(=O)C1(S(=O)(=O)c2ccc([N+](=O)[O-])cc2)CCCCC1,2.84
10,COC(=O)C1(S(=O)(=O)c2ccccc2)CC1,1.43
11,COC(=O)C1(S(=O)(=O)c2ccc(Br)cc2)CCCC1,2.73
12,CC(C)OC(=O)C1(S(=O)(=O)c2ccc(Cl)cc2)CC1,2.64
13,COC(=O)C1(S(=O)(=O)c2ccc(C)cc2)CCCCC1,2.54
14,COC(=O)C1(S(=O)(=O)c2ccc(Br)cc2)CC1,2.32
15,CCOC(=O)C1(S(=O)(=O)c2ccc(C)cc2)CCC1,2.31
16,COC(=O)CS(=O)(=O)c1ccccc1,0.93
17,COC(=O)CS(=O)(=O)c1ccc(Cl)cc1,1.31
18,COC(=O)C1(S(=O)(=O)c2ccc(Cl)cc2)CCC1,2.28
19,COC(=O)C1(S(=O)(=O)c2ccccc2)CCCC1,1.98
20,Cc1ccc(S(=O)(=O)C2(C(=O)OC(C)C)CC2)cc1,2.52
21,CC(C)OC(=O)C1(S(=O)(=O)c2ccc(Cl)cc2)CCCCC1,3.49

# Continued, values first:
row,logP,SMILES
1,2.45,COC(=O)C1(S(=O)(=O)c2ccc(Br)cc2)CCC1
2,1.77,COC(=O)C1(S(=O)(=O)c2ccc(C)cc2)CC1
3,2.05,CC(C)OC(=O)C1(S(=O)(=O)c2ccc([N+](=O)[O-])cc2)CC1
4,1.33,COC(=O)C1(S(=O)(=O)c2ccc([N+](=O)[O-])cc2)CC1
5,2.03,COC(=O)C1(S(=O)(=O)c2ccc(Cl)cc2)CC1
6,3.21,Cc1ccc(S(=O)(=O)C2(C(=O)OC(C)C)CCCCC2)cc1
7,2.36,CC(C)OC(=O)C1(S(=O)(=O)c2ccc([N+](=O)[O-])cc2)CCC1
8,2.23,CCOC(=O)C1(S(=O)(=O)c2ccc(C)cc2)CC1
9,2.04,CC(C)OC(=O)CS(=O)(=O)c1ccc(Cl)cc1
10,3.16,CC(C)OC(=O)C1(S(=O)(=O)c2ccc(Cl)cc2)CCCC1
11,3.41,CC(C)OC(=O)C1(S(=O)(=O)c2ccc([N+](=O)[O-])cc2)CCCCCC1
